Test results taken from publication PMC6105163, “Abaloparatide Exerts Bone Anabolic Effects with Less Stimulation of Bone Resorption-Related Factors: A Comparison with Teriparatide” (Calcified Tissue International, 2018).
Where two headings read alike, the source gives them in different places.

Columns and labels:
[1] = tested on: rat osteoblastic cell line UMR-106; assay: cAMP accumulation assay in UMR-106; type: cell-based; details: for cAMP accumulation, in words: UMR-106, 10 min (Fig. 1b), n = 3 replicate wells; for EC50 / Emax, cAMP accumulation: UMR-106, 10 min, 2 mmol/L 3-isobutyl-1-methylxanthine, mean ± s.e.m., three independent experiments, each triplicate; for EC50: P = 0.0067 ABL vs TPTD; for Emax, cAMP accumulation: P = 0.84 ABL vs TPTD
Protocol: The human osteoblastic cell line SaOS-2 and the rat osteoblastic cell line UMR-106 were purchased from the European Collection of Cell Cultures (Wiltshire, UK). SaOS-2 and UMR-106 were maintained in growth medium (GM): McCoy’s 5A (for SaOS-2) or Dulbecco’s Modified Eagle’s Medium (for UMR-106) supplemented with 10% FBS and 1% penicillin/streptomycin at 37 °C with 5% CO2. To initiate cell differentiation, cells were grown in differentiation medium (DM): GM containing 50 µg/mL ascorbic acid, 10 mmol/L β-glycerophosphate, and 10 nmol/L dexamethasone. The culture medium was exchanged every 6 days or less.
Cells were cultured in 96-well plates at a density of 4 × 10^4 cells/well in GM overnight. The medium was replaced with serum-free GM (containing 0.1% BSA instead of 10% FBS) for culture under starvation conditions. Twenty-four hours after the start of starvation, ABL, TPTD, or vehicle (water containing 0.1% BSA) were added to the cells with 2 mmol/L of 3-isobutyl-1-methylxanthine for 10 min. Cells were lysed and accumulated cAMP was measured using the cAMP-Screen System (Applied Biosystems, Waltham, MA, USA) according to the manufacturer’s instructions.
All data are expressed as means ± s.e.m. For calculation of EC50 and Emax, 4-parameter logistic curve fitting was performed. Student’s t test was used for two-group comparisons. Dunnett’s or Tukey’s test was used for multiple comparisons. Significance was inferred from P values of < 0.05. All data were analyzed using GraphPad Prism version 6.03 (GraphPad Software, La Jolla, CA, USA).

[2] = tested on: OVX rats; assay: Bone formation marker serum P1NP in OVX rats; type: in vivo, Sprague–Dawley rats (female); details: once daily s.c., day 28, vs OVX, n = 8 or 9
Excerpt: (§1) Ten-week-old female Sprague–Dawley rats were purchased from Charles River Laboratories Japan, Inc. (Kanagawa, Japan) and ovariectomized at 12 weeks old. Thirty-five days after surgery, rats received once daily subcutaneous injection of ABL, TPTD, or vehicle (saline containing 0.1% heat-inactivated rat serum) for 28 days. Day 0 indicates the day when administration was started. On day 26, rats were anesthetized with intraperitoneally administered pentobarbital sodium and the lumbar spine (L4 and L5) BMD was measured with a PIXImus2 (GE Healthcare, Chicago, IL). Blood (collected from the tail vein) and urine samples were obtained on day 28. Prior to collection, rats were fasted for 15–17 h. Rats were euthanized after the blood and urine collection, and the lumbar spine was removed for the measurement of bone strength. All experimental procedures were approved by the Animal Care and Use Committee of Teijin Institute for Bio-Medical Research.
(§2) Serum P1NP concentration was measured with a Rat/Mouse PINP EIA kit (Immunodiagnostic Systems, Boldon, UK). Urine DPD concentration was measured with an Osteolinks DPD kit (Quidel, San Diego, CA, USA). Urine creatinine (Cr) concentration was measured with a 7180 Autoanalyzer (Hitachi High-Technologies Corporation, Tokyo, Japan).

[3] = tested on: OVX rats; assay: Bone resorption marker urine DPD/Cr in OVX rats; type: in vivo, Sprague–Dawley rats (female); details: once daily s.c.; for urinary DPD/Cr at 5.0 nmol/kg: day 28; for urinary DPD/Cr, significance: day 28, n = 8 or 9
Excerpt: as §1, §2

[4] = tested on: SaOS-2; assay: Bone formation-related factor gene expression (qRT-PCR); type: cell-based, human; details: for IGF-1 gene expression / osteocalcin gene expression: 100 nmol/L once daily 11 days, 6-h exposure per 24-h cycle (Fig. 3b), n = 3; for IGF-1 and osteocalcin expression, continuous treatment: data not shown
Protocol: SaOS-2 was cultured in 12-well plates at a density of 2 × 10^5 cells/well in DM. Concomitant with the initiation of cell differentiation, cells were treated with 100 nmol/L of ABL and TPTD once daily for 11 days. The peptide exposure was limited to the first 6 h of the 24-h incubation cycle, and the medium was replaced with peptide-free medium for the rest of the cycle after washing with PBS twice.
Cells were lysed and total RNA was extracted using an RNeasy Mini Kit (Qiagen, Valencia, CA, USA). RNA was reverse-transcribed into cDNA using the SuperScript III First-Strand Synthesis System for RT-PCR (Invitrogen, Carlsbad, CA, USA). Quantitative RT-PCR was performed on a 7500 Real-Time PCR System (Applied Biosystems) using Power SYBR Green PCR Master Mix (Thermo Fisher Scientific, Waltham, MA, USA). The primers used in this study were as follows: 5′-CGATGGTGGATGGCTCATG-3′ (forward) and 5′-ACCAGATGGGATGTCGGTG-3′ (reverse) for RANKL, 5′-[…]-3′ (forward) and 5′-[…]-3′ (reverse) for M-CSF, 5′-[…]-3′ (forward) and 5′-[…]-3′ (reverse) for OPG, 5′-[…]-3′ (forward) and 5′-[…]-3′ (reverse) for IGF1, 5′-[…]-3′ (forward) and 5′-[…]-3′ (reverse) for osteocalcin, 5′-[…]-3′ (forward) and 5′-[…]-3′ (reverse) for DMP1, 5′-[…]-3′ (forward) and 5′-[…]-3′ (reverse) for SOST, 5′-[…]-3′ (forward) and 5′-[…]-3′ (reverse) for DKK1, 5′-GTGAAGGTCGGAGTCAACG-3′ (forward) and 5′-TGAGGTCAATGAAGGGGTC-3′ (reverse) for GAPDH.

[5] = tested on: PTH1R; details: ref [22]; cited from earlier work
Excerpt: It is unclear why ABL stimulates lower expression of bone resorption-related factors than TPTD with transient treatment only. Recently, it was reported that PTH1R has at least two types of active conformations and that the binding conformation selectivity differs between ABL and TPTD [21, 22]. This difference further affects the duration of the downstream signaling. […] We therefore thought that the difference in bone resorption-related factors could arise from the d ...

[6] = cited from earlier work
[7] = tested on: osteocytes; details: ref [11], [12]; cited from earlier work
Excerpt: The mechanism of action of TPTD on bone turnover is not fully understood; however, many studies have examined the molecular mechanisms in recent decades. According to a previous study, PTH(1–34) acts on osteoblasts and indirectly induces bone resorption by activating osteoclasts. PTH(1–34) increases the expression of receptor activator of nuclear factor kappa-B ligand (RANKL) and macrophage colony-stimulating factor (M-CSF) and decreases the expression of osteoprotegerin (OPG), a decoy receptor of RANKL [9]. These effects of PTH(1–34) further promote the maturation of osteoclasts with ... || Finally, we evaluated the effects of ABL on WNT signaling antagonists. WNT signaling antagonists such as sclerostin and DKK1 are secreted from osteocytes. They inhibit bone formation by antagonizing canonical WNT ligands and subsequently suppress WNT-mediated signaling pathways. […] We therefore evaluated the effects of ABL on WNT signaling antagonists in comparison with TPTD. It is generally known that human osteocytes have been diffic ...

Row | Substance | cAMP accumulation, in words [1] | EC50 [1] [nM] | Emax, cAMP accumulation [1] [nmol/L] | serum P1NP [2] | urinary DPD/Cr at 5.0 nmol/kg [3] | urinary DPD/Cr, significance [3] | IGF-1 gene expression [4] | osteocalcin gene expression [4] | IGF-1 and osteocalcin effects, ABL vs TPTD ([4]; 100 nmol/L, repeating 6-h exposure cycle, 11 days (Fig. 3b)) | IGF-1 and osteocalcin expression, continuous treatment [4] | duration of cAMP production after wash-out of unbound ligand [5] | half-life in humans ([6]; human, in vivo, sc) | expression of WNT signaling antagonists in osteocytes [7] | secretion of WNT signaling antagonists such as sclerostin and DKK1 [7] | half-life in humans ([6]; subcutaneous injection, ref [27], [28])
1 | [Glu^22,25, Leu^23,28,31, Aib^29, Lys^26,30] human PTHrP(1–34)–NH2 [Abaloparatide] | dose-dependently increased cAMP | 0.84 ± 0.03 | 278.4 ± 20.8 | significantly increased | a slight increase | no significant differences | increased | increased | not significantly different | could hardly detect | transient | approximately an hour or less | – | – | –
2 | human PTH(1–34) [Teriparatide] | dose-dependently increased cAMP | 1.18 ± 0.06 | 271.4 ± 25.0 | significantly increased | a slight increase | no significant differences | increased | increased | – | could hardly detect | sustained after the unbound ligand is washed out | – | inhibited | inhibiting | approximately an hour or less
